Entries after “also recorded” stand apart in the source; their conditions may differ. Like-named read-outs stand apart in the source and are kept apart here.
Experiments:
[1] = tested on: ZIKV human strain PAN2015 (2015/Panama); test: microbe, parasite or virus in culture; type: cell-based, Zika virus (ZIKV); settings: Vero E6 cells
Description: (§1) Vero E6 and LLC-MK2 cells were maintained in Dulbecco's Modified Eagle Medium (DMEM) supplemented with 8% fetal bovine serum (FBS) and penicillin and streptomycin (P/S). C6/36 cells were maintained in Eagle's Minimal Essential Medium (EMEM) supplemented with 5% FBS and P/S. ZIKV strains, including human strains PAN2016 (2016/Panama), R116265 (2016/Mexico), PAN2015 (2015/Panama), FLR (2015/Colombia), R103451 (2015/Honduras), PRVABC59 (2015/Puerto Rico), PLCal_ZV (2013/Thailand), and IbH 30656 (1968/Nigeria), mosquito strain MEX 2-81 (2016/Mexico), and rhesus macaque strain MR 766 (1947/Uganda), were used in the studies. These ZIKV strains were cultured in Vero E6 cells, and viral titers were detected by a standard plaque-forming assay. DENV human strains, including type 1: DENV-1-V1792 (2007/Vietnam), type 2: DENV-2-V594 (2006/Puerto Rico), type 3: DENV-3-V1043 (2006/Puerto Rico), and type 4: DENV-4-PR 06-65-740 (2006/Puerto Rico), were cultured in C6/36 cells, and the viral titers were determined by plaque-forming assay as described above.
(§2) A plaque reduction inhibition assay was carried out to measure the inhibitory activity of Z-medicaments against infections of ZIKV and DENV. […] The compound-virus mixtures were then transferred to Vero E6 cells (10^5/well) and incubated at 37° C. for 1 h. […] The cells were washed thoroughly with PBS, and overlaid with DMEM containing 1% carboxymethyl cellulose and 2% FBS, followed by in vitro culture at 37° C. for 4-5 days and then staining with 0.5% crystal violet.
(§3) After removal of the unbound compounds by centrifugation after addition of 3% PEG-6000, ZIKV was incubated with Vero E6 cells at 37° C. for 1 h. The cells were then washed with PBS, overlaid with DMEM containing 1% carboxymethyl cellulose and 2% FBS, and cultured at 37° C. for 4-5 days, followed by staining with 0.5% crystal violet.

[2] = Safety of ST087010 in pregnant Ifnar1-/- mice and their pups; type: in vivo
Protocol: FIG. 10A depicts weight changes of pregnant mothers at prenatal and postnatal time points and FIG. 10B depicts weight changes of pups at different postnatal time points. Alanine aminotransferase (ALT) (FIG. 10C) and creatinine (FIG. 10D) levels in sera of pregnant mice were measured by ALT assay and Creatinine assay, respectively, before and 4 h, 1, 3 and 5 days post-last injection of ST087010 or DMSO control. Haematoxylin and eosin (H&E) staining of tissues (FIG. 10E), including liver, spleen, kidney, and brain, from ST087010 or DMSO-treated mothers and their pups. Scale bar, 50 μm.
ST087010 was detected for its safety profiles in pregnant Ifnar1^−/− mice and their fetuses. Briefly, groups of 5 pregnant mice (8-12-week-old, E12-14) were i.p. injected with ST087010 (20 or 40 mg/kg of body weight), or DMSO (control), daily for 4 continual days. […] Sera collected before and 4 h, 1, 3 and 5 days after last injection were measured for ALT and creatinine levels using ALT and Creatinine Assay kits. Two mothers and their pups (at 3-week-old) were sacrificed, and their liver, spleen, kidney, and brain tissues were sectioned, and assessed for histopathological changes by H&E staining.

[3] = tested on: ZIKV mosquito strain MEX 2-81 (2016/Mexico); test: Plaque reduction inhibition assay in Vero E6 cells, ZIKV MEX 2-81; type: cell-based, Zika virus (ZIKV)
Description: as §1, §2, §3

ZIKV NS2B-NS3 protease = target: T1, ZIKV NS2B-NS3 protease (Zika virus, UniProt Q32ZE1); test: Fluorescence-based inhibition of NS2B-NS3 protease activity; type: biochemical; settings: substrate Bz-Nle-Lys-Lys-Arg-AMC 4 μM, protein 1 μg/ml
T1 construct: 49-97) and NS2 protein (residues 1-185) through a covalent; made in house; host or cells: E. coli
Protocol: Binding of compounds (NPs) to ZIKV full-length E (FIG. 3A), EDIII (FIG. 3B), and NS2B-NS3 (FIG. 3C) proteins, was detected by ELISA. The percent binding was reported in the presence or absence of serially diluted NPs using the formula (1-[E/EDIII-NP]/[E/EDIII])×100 (for E/EDIII binding) or (1-[NS2B-NS3-NP]/[NS2B-NS3])×100 (for NSEB-NS3 binding). […] The concentrations of ZIKV EDIII and mAbs were 1.5 and 0.5 μg/ml, respectively. […] The concentrations of substrate (Bz-Nle-Lys-Lys-Arg-AMC) and ZIKV NS2B-NS3 protein were 4 μM and 1 μg/ml, respectively. The percent inhibition of protease activity was calculated in the presence or absence of serially diluted compounds using the formula (1-[NS2B-NS3-substrate-NP]/[NS2B-NS3-substrate])×100. The IC50 values were calculated based on the percent inhibition. The data are expressed as mean±s.e.m. (n=4).

[4] = tested on: ZIKV human strain IbH 30656 (1968/Nigeria); test: Plaque reduction inhibition assay in Vero E6 cells, ZIKV IbH 30656; type: cell-based, Zika virus (ZIKV)
Protocol: A plaque reduction inhibition assay was carried out to measure the inhibitory activity of Z-medicaments against infections of ZIKV and DENV. […] The compound-virus mixtures were then transferred to Vero E6 cells (10^5/well) and incubated at 37° C. for 1 h.

Cc1cc2c(C(C)C)c(O)c(O)c(/C=N/n3c(=O)[nH][nH]c3=O)c2c(O)c1-c1c(C)cc2c(C(C)C)c(O)c(O)c(/C=N/n3c(=O)[nH][nH]c3=O)c2c1O [ST087010]
IC50 ([1]; Table 7, gossypol derivatives, read-out: ZIKV strains IC50, PAN2015): 3.5 ± 0.06 µM
Serum ALT and creatinine levels vs DMSO-treated mice, low dose ([2]; 20 mg/kg): no significant difference
Serum ALT and creatinine levels vs DMSO-treated mice, high dose ([2]; 40 mg/kg, 1 day after injection, elevations transient): significantly different
Histopathology of liver, spleen, kidney and brain, mothers and pups ([2]; 20 or 40 mg/kg, vs DMSO): no abnormal pathological changes; also recorded: no inflammation or cell infiltration
ALT and creatinine levels in sera, before vs after injection ([2]; 20 or 40 mg/kg, before injection and 4 h, 3 or 5 days after last injection): no significant differences
IC50 ([3]; Vero E6 cells, Table 7, gossypol derivatives, read-out: ZIKV strains IC50, MEX 2-81): 2.92 ± 0.25 µM
IC50 (ZIKV NS2B-NS3 protease; read-out: IC50, inhibition of ZIKV NS2B-NS3 protease cleavage): 4.84 µM
IC50 ([4]; Table 7, gossypol derivatives, read-out: ZIKV strains IC50, IbH 30656): 2.94 ± 0.08 µM

C[C@@H]1CC[C@@]2(OC1)O[C@H]1[C@@H](O)[C@H]3[C@@H]4CC[C@H]5C[C@@H](O[C@@H]6O[C@H](CO)[C@H](O[C@@H]7O[C@H](CO)[C@@H](O)[C@H](O[C@@H]8OC[C@@H](O)[C@H](O)[C@H]8O)[C@H]7O[C@@H]7O[C@H](CO)[C@H](O)[C@H](O[C@@H]8O[C@H](CO)[C@@H](O)[C@H](O)[C@H]8O)[C@H]7O)[C@H](O)[C@H]6O)[C@H](O)C[C@]5(C)[C@H]4CC[C@]3(C)[C@H]1[C@@H]2C [Digitonin, digitonin]
IC50 ([1]; Zika virus, Vero C1008, Table 1, read-out: IC50 against ZIKV strain PAN2015): 5 ± 0.01 µM
IC50 ([4]; Zika virus, Vero C1008, Table 1, read-out: IC50 against ZIKV strain IbH 30656): 5.3 ± 0.13 µM

COc1cc(/C=C/C(=O)CC(=O)/C=C/c2ccc(O)c(OC)c2)ccc1O [Curcumin, curcumin]
Inhibition of NS2B-NS3 protease activity (in words) (ZIKV NS2B-NS3 protease): low inhibitory activity

Cc1cc2c(C(C)C)c(O)c(O)c(C=O)c2c(O)c1-c1c(C)cc2c(C(C)C)c(O)c(O)c(C=O)c2c1O [Gossypol, gossypol]
IC50 ([3]; Zika virus, Vero C1008, read-out: IC50 against ZIKV strain MEX 2-81): 2.79 ± 0.01 µM
IC50 ([3]; Zika virus, Vero C1008, read-out: ZIKV strains IC50, MEX 2-81): 2.93 ± 0.01 µM

From patent US20220313651A1, “INHIBITORS OF ZIKA VIRUS INFECTION” (priority 2019, published 2022)
